The values below come from ChEMBL document CHEMBL1201862, “PubChem BioAssay data set” (2004).

Structures are written as SMILES.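 All cell lines were grown in 96-well plates and treated with compound for 48 hours. GI50 marks 50% less growth.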 Activity calls are given as the source filed them. Rule as the data show it: active = GI50 up to about 1.1 µM and inactive = higher. Some results are limits rather than exact numbers.

Among the test systems are HOP-18; BT-549; DMS-114; SNB-78; KM-20L2; M19-MEL; XF498; LXFL 529; RXF 631.
Holding throughout (assay): DTP human tumour cell line panel, 48 h

As usually defined, the GI50 is the concentration at which growth is held to half of that of the control. On to `COc1ccc2c(c1)c1c(C)c3cnccc3c(C)c1n2CCCN`, for which the GI50 in the test on HOP-18 was 0.42 µM (active); in the test on BT-549, 1.29 µM (inactive); in the test with DMS-114, 0.273 µM (active); in the test on SNB-78, 0.286 µM (active); with KM-20L2, 0.119 µM (active); in the test on M19-MEL it was 0.203 µM (active). In addition, the GI50 in the test on XF498 is 0.422 µM (active).
As for `COc1ccc(OC(C)C(=O)O)c2c(=O)ccccc12` (centres undefined), the GI50 in the test with LXFL 529, in the test on DMS-114, with SNB-78, in the test with KM-20L2, in the test on M19-MEL and in the test on RXF 631 was > 100 µM (inactive) in each case. In addition, in the test on XF498, the GI50 is > 100 µM (inactive).
For the compound `CCNC(=O)CCN(C(=O)O)S(=O)(=O)c1ccc(NC(=O)c2ccccc2)cc1`, the GI50 with HOP-18 is > 100 µM (inactive); in the test with LXFL 529, > 100 µM (inactive); with DMS-114 it was > 100 µM (inactive); in the test with SNB-78, > 100 µM (inactive); in the test with KM-20L2, > 100 µM (inactive); with M19-MEL, 77.6 µM (inactive). Further, in the test with XF498, the GI50 is > 100 µM (inactive).
For the compound `COc1ccc2oc(-c3ccncc3)cc(=O)c2c1`, the GI50 in the test on LXFL 529 is > 100 µM (inactive); in the test on DMS-114 it was > 100 µM (inactive); in the test with RXF 631, 40.5 µM (inactive); in the test on XF498, > 100 µM (inactive).
For the compound `CN(C)CCCNc1ccc2ncn3c4ccc(O)cc4c(=O)c1c23`, the GI50 with HOP-18 was 3.86 µM (inactive); in the test on BT-549, 17.3 µM (inactive); with LXFL 529, 1.87 µM (inactive); in the test with DMS-114, 0.334 µM (active); in the test on SNB-78, 9.73 µM (inactive); in the test with KM-20L2, 1.59 µM (inactive). Further, the GI50 in the test on M19-MEL was 1.53 µM (inactive); in the test on RXF 631, 0.318 µM (active); in the test with XF498, 3.83 µM (inactive).
As to `N#Cc1ccc(/C=C(/C(=O)c2ccccc2)c2ccccc2)cc1`, the GI50 with HOP-18 was 27.5 µM (inactive); in the test with LXFL 529, 4.78 µM (inactive); with DMS-114 it was 12.9 µM (inactive); with SNB-78 it was 2.79 µM (inactive); in the test on KM-20L2, 11.2 µM (inactive); in the test with M19-MEL, 14 µM (inactive). In addition, the GI50 is 11.1 µM (inactive) in the test with RXF 631 and 10.1 µM (inactive) with XF498.
Take `COc1cccc(NC(=O)CC(=O)N2N=C(N(CCC#N)c3ccccc3C)CC2c2ccccc2)c1` (centres undefined): the GI50 in the test on HOP-18, in the test on LXFL 529, in the test with DMS-114, in the test on SNB-78, in the test on KM-20L2 and in the test with M19-MEL was > 100 µM (inactive) each time. The GI50 in the test with RXF 631 was > 100 µM (inactive).
Consider `C[C@]12C/C(=C/O)C(=O)C(O)=C1CC[C@@H]1C2CC[C@@]2(C)C1CC[C@@H]2O` (some centres undefined), for which the GI50 is 33.7 µM (inactive) in the test with HOP-18; 16.2 µM (inactive) in the test with LXFL 529; 18.2 µM (inactive) in the test on DMS-114; 19.7 µM (inactive) in the test with SNB-78; 22.6 µM (inactive) in the test on KM-20L2; 21.2 µM (inactive) in the test with M19-MEL. Further, the GI50 is 20.6 µM (inactive) with RXF 631 and 17.6 µM (inactive) with XF498.
As for `COc1ccc2c(c1O)C(=O)C(CCC(=O)O)CC2` (centres undefined), the GI50 with HOP-18, in the test with LXFL 529, with DMS-114, in the test on SNB-78, with KM-20L2 and in the test on M19-MEL was > 100 µM (inactive) each time. Besides, the GI50 with RXF 631 and in the test with XF498 was > 100 µM (inactive) each time.
Consider `O=C(NCCc1ccccc1)C1C(=O)C(=O)N(CCc2ccccc2)C1=O` (centres undefined), for which the GI50 in the test on LXFL 529, in the test on SNB-78, in the test on KM-20L2, in the test on M19-MEL, with RXF 631 and with XF498 was > 100 µM (inactive) throughout.
`COc1ccc(-c2cc(O)c3cc4c(cc3n2)OCO4)c(OC)c1OC`: the GI50 with HOP-18 was 96.6 µM (inactive); in the test with LXFL 529, > 100 µM (inactive); with DMS-114 it was 29.4 µM (inactive); in the test with SNB-78, > 100 µM (inactive); in the test on KM-20L2, > 100 µM (inactive); in the test on M19-MEL, 95.1 µM (inactive). Besides, in the test on XF498, the GI50 is 66.5 µM (inactive).
As for `OCC(O)COc1ccc(F)cc1` (centres undefined), the GI50 with HOP-18, in the test on LXFL 529, in the test with DMS-114, with SNB-78, with KM-20L2 and with M19-MEL was > 100 µM (inactive) throughout. The GI50 in the test on XF498 is > 100 µM (inactive).
For the compound `O=C1c2ccccc2C(=O)c2c1ccc1c2N=C(c2ccc(Br)cc2)CC(c2cccc3ccccc23)N1` (centres undefined), the GI50 in the test with HOP-18, in the test on LXFL 529, with DMS-114, in the test on SNB-78, in the test on KM-20L2 and in the test on RXF 631 was > 100 µM (inactive) throughout. Also, the GI50 with XF498 is > 100 µM (inactive).
For `NC(=O)c1ncn2c1NCC1OC2C(O)C1O` (centres undefined), the GI50 in the test with HOP-18, in the test with LXFL 529, with DMS-114, with SNB-78, in the test with KM-20L2 and with M19-MEL was > 100 µM (inactive) throughout. The GI50 in the test with RXF 631 and with XF498 was > 100 µM (inactive) each time.
For the compound `CC(=O)Nc1cccc(/N=N/N(C)C)c1`, the GI50 in the test with HOP-18, in the test on DMS-114, with SNB-78, in the test on KM-20L2, in the test with M19-MEL and in the test with XF498 was > 100 µM (inactive) in each case.
Take `CC(=O)N(C)C=C1C(=O)N(C)C(=O)N(C)C1=O`: the GI50 in the test with HOP-18, in the test with LXFL 529, in the test on DMS-114, in the test with KM-20L2, in the test with M19-MEL and in the test with RXF 631 was > 100 µM (inactive) each time. Besides, the GI50 in the test on XF498 is > 100 µM (inactive).
In the case of `O=P(Nc1ccccc1)(Oc1ccccc1)N(CCCl)CCCl` (centres undefined), the GI50 was > 100 µM (inactive) in the test on HOP-18; 60.1 µM (inactive) with DMS-114; > 100 µM (inactive) with SNB-78; > 100 µM (inactive) in the test with KM-20L2; > 100 µM (inactive) in the test on M19-MEL; > 100 µM (inactive) in the test on RXF 631.
